Source: ChEMBL document CHEMBL1201862, “PubChem BioAssay data set” (2004)
Activity calls are given as the source filed them.

Assays:
[1] = target: T1, Corticotropin-releasing factor receptor 2/Corticotropin-releasing factor-binding protein (Homo sapiens, UniProt P24387+Q13324); test: activators of CRF receptor 2 with binding protein – uHTS hits, confirmation (AID 602473); format: functional; conditions: read-out: EC50_Mean
T1 sequence (Q13324 whole entry): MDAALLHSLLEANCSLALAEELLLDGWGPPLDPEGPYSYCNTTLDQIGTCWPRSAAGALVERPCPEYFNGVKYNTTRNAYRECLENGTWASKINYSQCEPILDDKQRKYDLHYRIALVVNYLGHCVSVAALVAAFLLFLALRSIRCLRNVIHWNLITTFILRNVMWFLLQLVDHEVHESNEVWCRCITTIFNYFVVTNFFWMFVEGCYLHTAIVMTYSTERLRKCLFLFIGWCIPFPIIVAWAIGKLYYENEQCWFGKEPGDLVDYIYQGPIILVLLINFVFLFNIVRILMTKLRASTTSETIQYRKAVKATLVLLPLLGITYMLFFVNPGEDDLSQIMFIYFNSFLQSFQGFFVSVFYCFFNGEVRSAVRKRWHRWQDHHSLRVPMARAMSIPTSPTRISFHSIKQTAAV
T1 sequence (P24387 whole entry): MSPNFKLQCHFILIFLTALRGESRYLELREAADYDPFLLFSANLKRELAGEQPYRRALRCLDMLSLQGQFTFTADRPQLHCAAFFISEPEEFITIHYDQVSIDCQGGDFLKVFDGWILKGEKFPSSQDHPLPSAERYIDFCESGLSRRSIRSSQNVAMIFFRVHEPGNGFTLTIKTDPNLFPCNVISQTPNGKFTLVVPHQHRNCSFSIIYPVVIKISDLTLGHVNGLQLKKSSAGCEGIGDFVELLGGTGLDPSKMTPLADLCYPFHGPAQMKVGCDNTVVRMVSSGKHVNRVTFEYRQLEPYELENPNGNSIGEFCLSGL

[2] = target: Cytochrome P450 2D6 (Homo sapiens, UniProt P10635);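 also: CYP2D6 member of a cytochrome P450 panel assay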
Chain of Cytochrome P450 2D6 (P10635 whole entry): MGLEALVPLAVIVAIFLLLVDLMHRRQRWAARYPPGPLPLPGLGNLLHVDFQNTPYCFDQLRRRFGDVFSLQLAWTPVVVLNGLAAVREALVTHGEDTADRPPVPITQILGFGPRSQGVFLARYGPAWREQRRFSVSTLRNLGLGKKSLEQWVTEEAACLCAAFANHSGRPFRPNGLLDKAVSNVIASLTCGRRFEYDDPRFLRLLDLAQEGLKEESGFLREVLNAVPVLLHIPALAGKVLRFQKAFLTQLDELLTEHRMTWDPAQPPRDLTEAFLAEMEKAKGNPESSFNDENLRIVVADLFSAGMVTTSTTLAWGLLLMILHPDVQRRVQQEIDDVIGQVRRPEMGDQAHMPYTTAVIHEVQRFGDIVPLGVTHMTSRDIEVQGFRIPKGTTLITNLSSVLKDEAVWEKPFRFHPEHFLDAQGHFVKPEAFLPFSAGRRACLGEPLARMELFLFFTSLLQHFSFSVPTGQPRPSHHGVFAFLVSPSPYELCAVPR

[3] = target: Cytochrome P450 2C9 (Homo sapiens, UniProt P11712)
Chain of Cytochrome P450 2C9 (P11712 whole entry): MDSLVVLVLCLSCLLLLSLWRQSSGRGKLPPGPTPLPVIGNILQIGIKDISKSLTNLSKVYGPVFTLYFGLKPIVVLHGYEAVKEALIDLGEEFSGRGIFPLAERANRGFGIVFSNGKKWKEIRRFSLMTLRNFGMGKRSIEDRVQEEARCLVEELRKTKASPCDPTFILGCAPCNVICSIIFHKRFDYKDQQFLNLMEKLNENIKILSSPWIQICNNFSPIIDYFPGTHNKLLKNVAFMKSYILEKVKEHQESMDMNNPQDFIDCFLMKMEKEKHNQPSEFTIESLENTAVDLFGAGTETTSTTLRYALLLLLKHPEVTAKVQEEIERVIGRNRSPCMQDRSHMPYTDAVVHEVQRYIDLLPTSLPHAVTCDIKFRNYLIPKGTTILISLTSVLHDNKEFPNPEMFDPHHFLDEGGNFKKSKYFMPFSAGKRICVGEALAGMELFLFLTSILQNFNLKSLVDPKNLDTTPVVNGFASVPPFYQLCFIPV

[4] = target: T2, Cytochrome P450 1A2 (Homo sapiens, UniProt P05177);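 also: PubChem cytochrome P450 panel assay, CYP1A2 panel member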
T2 sequence (P05177 whole entry): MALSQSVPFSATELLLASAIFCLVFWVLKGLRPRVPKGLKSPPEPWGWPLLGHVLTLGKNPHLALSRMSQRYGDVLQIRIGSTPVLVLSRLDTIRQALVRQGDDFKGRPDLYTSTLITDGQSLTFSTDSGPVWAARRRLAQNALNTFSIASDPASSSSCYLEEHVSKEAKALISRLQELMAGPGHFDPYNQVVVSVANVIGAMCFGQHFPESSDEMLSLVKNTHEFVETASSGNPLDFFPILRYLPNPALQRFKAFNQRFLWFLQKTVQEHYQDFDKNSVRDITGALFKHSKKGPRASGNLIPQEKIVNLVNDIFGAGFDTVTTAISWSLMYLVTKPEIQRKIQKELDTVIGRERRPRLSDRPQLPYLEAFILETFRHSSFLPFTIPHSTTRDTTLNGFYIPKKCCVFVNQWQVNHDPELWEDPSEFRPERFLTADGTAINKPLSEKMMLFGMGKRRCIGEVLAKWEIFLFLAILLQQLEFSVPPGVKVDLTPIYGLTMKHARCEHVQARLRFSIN

[5] = inhibitors of intracellular T. cruzi replication, confirmation, NIH3T3 host cells, beta-gal luminescence (AID 2044); format: functional, cell-based;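 also: intracellular parasites grown in NIH/3T3 mouse fibroblasts as host cells; luminescent beta-galactosidase reporter signal from transgenic T. cruzi replicating inside host cells; inhibitors lower the luminescence signal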
[6] = cytotoxicity toward NIH3T3 fibroblasts, dose response, counter-screen, cell-based, ATP luminescence, mouse fibroblasts (AID 2010); format: functional;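 also: cells exposed to compound for about 90 hours before reading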
[7] = target: Cytochrome P450 2C19 (Homo sapiens, UniProt P33261); test: Cytochrome panel assay with activity outcomes. Panel member name: p450-cyp2c19 Compounds with AC50 equal or less than 10 uM are considered active; format: functional
Chain of Cytochrome P450 2C19 (P33261 whole entry): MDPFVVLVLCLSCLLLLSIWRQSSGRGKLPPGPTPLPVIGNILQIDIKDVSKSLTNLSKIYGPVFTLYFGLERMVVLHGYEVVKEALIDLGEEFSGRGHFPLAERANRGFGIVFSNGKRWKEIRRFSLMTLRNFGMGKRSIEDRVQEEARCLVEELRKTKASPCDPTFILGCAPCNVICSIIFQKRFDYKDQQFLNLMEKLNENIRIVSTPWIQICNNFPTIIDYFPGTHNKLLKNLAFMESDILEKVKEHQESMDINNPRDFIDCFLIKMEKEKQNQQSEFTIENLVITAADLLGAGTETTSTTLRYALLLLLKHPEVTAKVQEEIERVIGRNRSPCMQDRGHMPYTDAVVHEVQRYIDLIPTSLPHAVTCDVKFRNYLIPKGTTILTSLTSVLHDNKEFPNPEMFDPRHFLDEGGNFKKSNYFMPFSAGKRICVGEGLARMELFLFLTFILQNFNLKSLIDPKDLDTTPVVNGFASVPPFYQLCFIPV

[8] = tested on: Streptococcus sp. 'group A'; test: growth inhibition of control SK(-) GAS strain, dose response, counter-screen for streptokinase expression inhibitor project, luminescence, kanamycin, BacTiterGlo, confirmation (AID 1900); format: functional, organism-based
[9] = tested on: Streptococcus; test: Group A Streptococcus viability loss, dose response, counter-screen for streptokinase expression inhibitor project, luminescence, BacTiterGlo (AID 1915); format: functional, organism-based;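 also: potency for reduction of bacterial viability or growth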

## O=C(CN1CCCC1)Nc1ccccc1Sc1ccccc1
[1]
  EC50: > 53 µM (inactive)

## CCOc1ccc(N2C(=O)CS/C2=N/NC(=O)COc2ccc3ccccc3c2)cc1
[2]
  AC50: 39.8 µM (inconclusive)
[3]
  AC50: 31.6 µM (inconclusive)

## C#CCOC(=O)Nc1ccc(=O)n(Cc2c(Cl)cccc2Cl)c1
[2]
  AC50: 20 µM (inconclusive)
[4]
  AC50: 12.6 µM (inconclusive)

## CN(C)CCCNc1c2c(=O)n(C)c(=O)nc-2n(C)c2ccccc12
[4]
  AC50: 5.01 µM (inconclusive)

## c1ccc(CCNCc2ccco2)nc1
[2]
  AC50: 2.51 µM (inconclusive)
[4]
  AC50: 6.31 µM (inconclusive)

## Cc1ccc(-c2ccc(=O)n(CC(=O)N3CCN(c4cccc(C)c4)C(C)C3)n2)cc1 (stereo unspecified)
[2]
  AC50: 28.2 µM (inconclusive)
[4]
  AC50: 20 µM (inconclusive)
[3]
  AC50: 20 µM (inconclusive)

## CCOc1ccc(NS(=O)(=O)c2ccc(C(=O)N3CCCC(C)C3)cc2)cc1 (stereo unspecified)
[1]
  EC50: 11.1 µM (active)

## Cc1cccc(-n2c(SCc3ccc([N+](=O)[O-])cc3)nnc2-c2c[nH]c3ccccc23)c1
[5]
  EC50: 1.77 µM (active)
[6]
  EC50: > 60 µM (not active)

## COCc1c(C(=O)OCC(=O)N2c3ccccc3NC(=O)C2(C)C)oc2ccccc12
[7]; read-out: AC50
  AC50: 20 µM (inconclusive)
[3]
  AC50: 31.6 µM (inconclusive)

## Oc1ccc(Oc2nc(N3CCOCC3)nc(N3CCOCC3)n2)nn1
[7]; read-out: AC50
  AC50: 2.82 µM (inconclusive)

## Cc1cc(SCC(=O)c2ccc(Br)cc2)cc(C)[o+]1
[7]; read-out: AC50
  AC50: 0.398 µM (inconclusive)
[2]
  AC50: 3.16 µM (inconclusive)

## CCn1cnc2c(Nc3cccc(Cl)c3)nc(N[C@@H]3CCCC[C@H]3N)nc21
[7]
  AC50: inconclusive

## CCOC(=O)c1ccc(NC(=O)C2CCCO2)cc1 (stereo unspecified)
[7]; read-out: AC50
  AC50: 14.1 µM (inconclusive)
[3]
  AC50: 0.0251 µM (inconclusive)

## COc1ccccc1/C=C/C(=O)OCCCN(C)C
[5]
  EC50: 0.794 µM (active)
[6]
  EC50: > 30 µM (not active)

## CCOC(=O)/C(=C\c1ccc([N+](=O)[O-])o1)NC(=O)c1ccccc1
[5]
  EC50: 0.995 µM (active)
[6]
  EC50: > 60 µM (not active)

## Cc1ccnc(NC(=O)c2cc([N+](=O)[O-])cc([N+](=O)[O-])c2)c1
[5]
  EC50: 0.193 µM (active)
[6]
  EC50: > 60 µM (not active)

## O=C(Nc1ccncc1)c1cc(S(=O)(=O)N2CCN(c3ccccc3)CC2)ccc1Cl
[5]
  EC50: 2.56 µM (active)
[6]
  EC50: > 30 µM (not active)

## O=C(CSc1nc2ccccc2s1)c1sc2sc3ccccc3[n+]2c1O
[3]
  AC50: 6.31 µM (inconclusive)

## O=C(CCS(=O)(=O)c1cccs1)N1CCN(c2ccc(F)cc2)CC1
[4]
  AC50: 31.6 µM (inconclusive)
[3]
  AC50: 2.51 µM (inconclusive)

## N#Cc1ccc(CN2CCCC3(CCN(C(=O)c4cnccn4)CC3)C2)cc1
[2]
  AC50: 10 µM (inconclusive)

## CC(=O)N1CCC(=O)N(C(C)C)c2ccccc21
[3]
  AC50: 0.0282 µM (inconclusive)

## O=C(O)CCC(=O)c1ccc(-c2ccccc2)cc1 [FENBUFEN]
[4]
  AC50: 12.6 µM (inconclusive)

## CCCCN(C)CCCNC(=O)c1ccc2c(c1)N(CC)C(=O)c1ccccc1[S+]2[O-] (stereo unspecified)
[5]
  EC50: 0.238 µM (active)
[6]
  EC50: > 60 µM (not active)

## Cc1cc(C)c2nc3c(c([C@H](O)[C@@H]4CCCCN4)c2c1)CC/C3=C/c1ccc(Cl)cc1
[3]
  AC50: 1 µM (inconclusive)

## COc1cccc(C(=O)NC2CCN(C(=O)N3c4ccccc4Sc4ccccc43)CC2)c1
[5]
  EC50: 2.23 µM (active)
[6]
  EC50: > 60 µM (not active)

## COC(=O)[C@@]1(Cc2ccccc2)[C@H]2c3cc(C(=O)N4CCCC4)n(Cc4ccc(C(F)(F)F)nc4)c3C[C@H]2CN1C(=O)c1ccccc1
[2]
  AC50: 25.1 µM (inconclusive)

## Cc1ccc(SCc2n[nH]c3c2C(C(C)C)C(C#N)=C(N)O3)cc1 (stereo unspecified)
[2]
  AC50: 0.00316 µM (inconclusive)

## Cc1ccc(C(=N)c2ccccc2Cc2cccc3ccccc23)c2ccccc12
[2]
  AC50: 2.51 µM (inconclusive)
[4]
  AC50: 1 µM (inconclusive)

## Cn1cc(-c2nc3cncnc3n(-c3ccccc3)c2=O)c2ccccc21
[7]; read-out: AC50
  AC50: 39.8 µM (inconclusive)

## CCOC(=O)c1c(-c2ccccc2)csc1NC(=O)/C(C#N)=C\c1ccc(O)c(OC)c1
[1]
  EC50: 6.49 µM (active)

## COc1c(Cl)cc(-c2noc(C)c2C(=O)NCc2ccc3c(c2)OCO3)cc1Cl
[1]
  EC50: > 53 µM (inactive)

## c1ccc(CN2CCCC3(CCCN(Cc4nc(COc5ccccc5)no4)C3)C2)cc1 (stereo unspecified)
[5]
  EC50: 0.285 µM (active)
[6]
  EC50: > 60 µM (not active)

## COc1ccc(C(=O)c2sc(Nc3cccc(OC)c3)c(C(=O)Nc3cccc(C)c3C)c2N)cc1
[1]
  EC50: > 53 µM (inactive)

## C=CCN1CCC2(C)c3cc(O)ccc3CC1C2C (stereo unspecified)
[1]
  EC50: > 53 µM (inactive)

## CC(C)c1cc(-c2cc(C(=O)NCc3ccccc3)on2)nc(NCC2CC2)n1
[1]
  EC50: 10.2 µM (active)

## N#CCCn1c(=O)c(-c2ccc(F)cc2)nc2cnc(Oc3cccc(Cl)c3)nc21
[4]
  AC50: 0.501 µM (inconclusive)

## COc1ccccc1CN1CC[C@@]2(CCCN(S(=O)(=O)c3ccccc3)C2)C1
[4]
  AC50: 25.1 µM (inconclusive)

## Cc1cccc([C@H](C)c2cnc[nH]2)c1C [DEXMEDETOMIDINE]
[2]
  AC50: 12.6 µM (inconclusive)

## Cc1ccc(C(=O)NNC(=O)CSc2nnc(-c3ccncc3)n2-c2ccc(C)cc2)cc1
[2]
  AC50: 12.6 µM (inconclusive)

## O=C(NC(=S)Nc1ccc(CN2CCCCC2)cc1)c1cccc(OCc2ccccc2)c1
[5]
  EC50: 1.09 µM (active)
[6]
  EC50: > 60 µM (not active)

## O=[N+]([O-])c1cc(Oc2cccnc2)cc([N+](=O)[O-])c1
[5]
  EC50: 0.503 µM (active)
[6]
  EC50: > 60 µM (not active)

## NC(=NOC(=O)Cc1ccc(-c2ccccc2)cc1)c1cccc([N+](=O)[O-])c1
[7]; read-out: AC50
  AC50: 2.82 µM (inconclusive)
[3]
  AC50: 10 µM (inconclusive)

## CC(OC(=O)c1ccc(S(=O)(=O)NCc2ccco2)cc1)C(=O)Nc1ccc(Cl)cn1 (stereo unspecified)
[1]
  EC50: 4.62 µM (active)

## CCN1C(=O)[C@@H]2[C@H]3C(=CC[C@@H]2C1=O)C1(OCCCO1)[C@H]1O[C@@H]1[C@H]3O
[3]
  AC50: 5.01 µM (inconclusive)

## CC(=O)SC[C@@H](Cc1ccccc1)C(=O)NCC(=O)OCc1ccccc1 [ECADOTRIL]
[3]
  AC50: 3.98 µM (inconclusive)

## COc1ccc(NC(=O)OC(C)C)cc1
[7]; read-out: AC50
  AC50: 28.2 µM (inconclusive)
[2]
  AC50: 35.5 µM (inconclusive)
[3]
  AC50: 14.1 µM (inconclusive)

## CCC(=O)NC(NC(=O)CC)C(Cl)Cl
[3]
  AC50: 20 µM (inconclusive)

## C[C@H](N[C@@H](C)COc1ccccc1)[C@H](O)c1ccc(O)cc1 [ISOXSUPRINE]
[7]; read-out: AC50
  AC50: 15.8 µM (inconclusive)

## O=C(COc1ccc2ccccc2c1)N1CCN(CC2CC3C=CC2C3)CC1 (stereo unspecified)
[4]
  AC50: 22.4 µM (inconclusive)

## O=S(=O)(c1ccccc1)c1cnn2c(C(F)(F)F)cc(-c3ccccc3)nc12
[7]; read-out: AC50
  AC50: 39.8 µM (inconclusive)
[3]
  AC50: 0.708 µM (inconclusive)

## COc1ccc(C(=O)OCC(=O)Nc2nnc(-c3ccccc3)o2)cc1
[8]
  EC50: 5.97 µM (active)
[9]
  EC50: 19.2 µM (active)

## Cc1ccc2c(c1)N(CC(=O)NC1CCC(C)CC1)C(=O)CO2 (stereo unspecified)
[2]
  AC50: 14.1 µM (inconclusive)

## COc1ccc(C(=O)C(OC(=O)CNC(=O)c2ccco2)c2ccccc2)cc1 (stereo unspecified)
[2]
  AC50: 35.5 µM (inconclusive)
[4]
  AC50: 31.6 µM (inconclusive)

## Cc1cc(/C=C2\C(=N)N3N=C(S(C)(=O)=O)SC3=NC2=O)c(C)n1Cc1ccccc1
[8]
  EC50: 4.19 µM (active)
[9]
  EC50: 21.1 µM (active)
